According to ChEMBL document CHEMBL4138060, “Development of new scaffolds as reversible tissue transglutaminase inhibitors, with improved potency or resistance to glutathione addition” (Medchemcomm, 2017):

Molecular target: T1, Protein-glutamine gamma-glutamyltransferase (Homo sapiens, UniProt P21980)
T1 sequence (P21980 whole entry): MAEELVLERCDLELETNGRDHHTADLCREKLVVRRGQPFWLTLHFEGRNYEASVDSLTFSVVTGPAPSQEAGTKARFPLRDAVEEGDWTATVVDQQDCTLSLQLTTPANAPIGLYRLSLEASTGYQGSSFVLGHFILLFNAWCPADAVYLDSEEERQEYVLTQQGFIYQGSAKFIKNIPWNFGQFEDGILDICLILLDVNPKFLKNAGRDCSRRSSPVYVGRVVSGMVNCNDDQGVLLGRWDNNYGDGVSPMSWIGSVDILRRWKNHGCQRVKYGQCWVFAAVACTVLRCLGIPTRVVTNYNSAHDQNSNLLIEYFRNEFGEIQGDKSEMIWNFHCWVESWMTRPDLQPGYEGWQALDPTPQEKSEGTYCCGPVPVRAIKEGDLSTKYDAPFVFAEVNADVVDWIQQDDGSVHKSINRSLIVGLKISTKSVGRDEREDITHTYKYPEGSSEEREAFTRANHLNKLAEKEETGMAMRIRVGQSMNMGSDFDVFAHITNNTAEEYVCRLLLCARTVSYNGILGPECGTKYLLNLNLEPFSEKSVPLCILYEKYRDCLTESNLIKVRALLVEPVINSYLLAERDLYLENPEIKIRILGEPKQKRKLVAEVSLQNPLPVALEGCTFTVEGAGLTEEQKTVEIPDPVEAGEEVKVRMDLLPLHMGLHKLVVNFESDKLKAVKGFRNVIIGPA
Test: Competitive inhibition of human transglutaminase 2 using N-Cbz-Glu(gamma-p-nitrophenylester)Gly (AL5) substrate measured over 10 mins by UV-visible spectrophotometry based Michaelis-Menten analysis
Conditions: not given; call rule not given here

SMILES	Ki
O=C(c1cn(Cc2ccc([N+](=O)[O-])cc2)nn1)c1cn(Cc2ccc([N+](=O)[O-])cc2)nn1	9.9 µM
O=C(C#Cc1ccc([N+](=O)[O-])cc1)c1cn(Cc2ccc([N+](=O)[O-])cc2)nn1	0.42 µM

Molecular target: not listed separately
Test: Inhibition of guinea pig liver transglutaminase 2 using N-Cbz-Glu(gamma-p-nitrophenylester)Gly (AL5) substrate measured over 10 mins by UV-visible spectrophotometry
Design: species or system Cavia porcellus
Conditions: not given

SMILES	IC50
O=C(/C=C/c1ccc([N+](=O)[O-])cc1)c1cn(Cc2ccc([N+](=O)[O-])cc2)nn1	2.1 µM
O=C(/C=C/c1ccc([N+](=O)[O-])cc1)n1nnc2ccccc21	74 µM

Molecular target: T1, Protein-glutamine gamma-glutamyltransferase
Test: Inhibition of human transglutaminase 2
Conditions: not given

SMILES	IC50	Ki
O=C(/C=C/c1cccc([N+](=O)[O-])c1)c1cccnc1	19.6 µM	4 µM

Molecular target: T1, Protein-glutamine gamma-glutamyltransferase
Test: Inhibition of human transglutaminase 2 using N-Cbz-Glu(gamma-p-nitrophenylester)Gly (AL5) substrate measured over 10 mins by UV-visible spectrophotometry
Conditions: not given

SMILES	IC50
CC(C)/C(=C\C(=O)n1nnc2ccccc21)c1ccc([N+](=O)[O-])cc1	Not Active
COc1ccc(Cn2cc(C(=O)c3cn(Cc4ccc([N+](=O)[O-])cc4)nn3)nn2)cc1	Not Active
O=C(c1cn(Cc2ccc(C(F)(F)F)cc2)nn1)c1cn(Cc2ccc(C(F)(F)F)cc2)nn1	Not Active
O=C(c1cn(Cc2ccc(Br)cc2)nn1)c1cn(Cc2ccc([N+](=O)[O-])cc2)nn1	Not Active
O=C(c1cn(Cc2ccc(F)cc2)nn1)c1cn(Cc2ccc([N+](=O)[O-])cc2)nn1	Not Active
O=C(c1cn(Cc2ccc([N+](=O)[O-])cc2)nn1)c1cn(CC2CCCCC2)nn1	Not Active
O=C(c1cn(Cc2ccccc2)nn1)c1cn(Cc2ccc([N+](=O)[O-])cc2)nn1	Not Active
Cc1ccc(Cn2cc(C(=O)c3cn(Cc4ccc([N+](=O)[O-])cc4)nn3)nn2)cc1	Not Active
CC(C)/C(=C/C(=O)n1nnc2ccccc21)c1ccc([N+](=O)[O-])cc1	Not Active

Results, then the compound that gave them:

IC50	SMILES
Not Active	O=[N+]([O-])c1cccc(-c2cc(-c3cccnc3)on2)c1
Not Active	C/C(=C\C(=O)n1nnc2ccccc21)c1ccc([N+](=O)[O-])cc1

Same assay, conditions: read-out: IC50

SMILES	IC50
O=C(c1cn(Cc2ccc([N+](=O)[O-])cc2)nn1)c1cn(Cc2cccc([N+](=O)[O-])c2)nn1	> 100 µM
O=C(C#Cc1ccc([N+](=O)[O-])cc1)n1nnc2ccccc21	2.6 µM
O=C(c1cn(Cc2ccc(OC(F)(F)F)cc2)nn1)c1cn(Cc2ccc([N+](=O)[O-])cc2)nn1	> 100 µM
O=C(c1cn(Cc2ccc([N+](=O)[O-])cc2)nn1)c1cn(Cc2ccccc2[N+](=O)[O-])nn1	64.1 µM
N#Cc1ccc(Cn2cc(C(=O)c3cn(Cc4ccc([N+](=O)[O-])cc4)nn3)nn2)cc1	> 100 µM
O=C(c1cn(Cc2ccc([N+](=O)[O-])cc2)nn1)c1cn(Cc2ccc([N+](=O)[O-])cc2)nn1	14.1 µM
O=C(C#Cc1ccc([N+](=O)[O-])cc1)c1cn(Cc2ccc([N+](=O)[O-])cc2)nn1	0.79 µM
O=C(c1cn(Cc2ccc([N+](=O)[O-])cc2)nn1)c1cn(Cc2ccc(C(F)(F)F)cc2)nn1	25.9 µM
O=C(C#Cc1ccc([N+](=O)[O-])cc1)c1cn(Cc2ccccc2)nn1	0.61 µM

Further lines, results first:

IC50	SMILES
19.6 µM	O=C(/C=C/c1cccc([N+](=O)[O-])c1)c1cccnc1
145 µM	O=C(c1cc2cc([N+](=O)[O-])ccc2oc1=O)n1nnc2ccccc21
147 µM	O=C(c1cccnc1)[C@H]1C[C@@H]1c1cccc([N+](=O)[O-])c1
151 µM	O=[N+]([O-])c1cccc(/C=C/C2(c3cccnc3)CO2)c1 (stereo not drawn)

Molecular target: not listed separately
Test: Inhibition of guinea pig liver transglutaminase 2
Design: species or system Cavia porcellus
Conditions: not given

SMILES	IC50
O=C(/C=C/c1ccc([N+](=O)[O-])cc1)c1cccnc1	21 µM
O=C(/C=C/c1cccc([N+](=O)[O-])c1)c1cccnc1	3 µM
O=C(/C=C/c1ccc([N+](=O)[O-])cc1)n1nnc2ccccc21	74 µM
